The results in this text go back to PubChem BioAssay (NCI).

Where “and” joins values, the source holds several entries; their conditions need not be identical. Identical values can stand only once.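 Five compound concentrations were applied to cells in 96-well plates for 48 hours; endpoints were derived by simple linear interpolation of the resulting dose-response curve. GI50 marks 50% less growth. TGI is the concentration that stops growth completely.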 Bounds are passed on as bounds.

Common to all, as to assay: NCI anticancer screen, dose series, 48 h
Experiment [1] concerns COLO 205 colon.
The subject of experiment [2] is OVCAR-8 ovarian.
The test system of experiment [3] is K-562 leukemia.
Experiment [4] deals with NCI-H522 lung.
Experiment [5] relates to NCI/ADR-RES ovarian.
In experiment [6] the test system is MALME-3M melanoma.
Experiment [7] deals with SK-OV-3 ovarian.
Experiment [8] relates to OVCAR-4 ovarian.
In experiment [9] the test system is HT29 colon.
Experiment [10] relates to HL-60(TB) leukemia.

Regarding `COc1cc(Nc2ncc(F)c(Nc3ccc4c(n3)N(COP(=O)(O)O)C(=O)C(C)(C)O4)n2)cc(OC)c1OC`, the GI50 in experiment [1] is 2.03 µM and 1.31 µM; in experiment [2], 3.33 µM and 3.07 µM; in experiment [3] it was 5.3 µM and 3.41 µM; in experiment [4], 1.53 µM and 1.24 µM; in experiment [5], 2.99 µM and 3.01 µM; in experiment [6], 3 µM and 5.93 µM. Besides, the GI50 in [7] is 0.972 µM and 0.707 µM; in [8], 1.69 µM and 1.74 µM; in experiment [9], 1.66 µM; in experiment [10], 4.19 µM and 6.05 µM. In addition, the TGI is 5.37 µM and 3.59 µM in [1]; 16.5 µM and > 10 µM in [2]; above 100 µM in [3]; 7.02 µM and 7.1 µM in experiment [4]; 17.2 µM and > 10 µM in [5]; 17.8 µM and > 10 µM in experiment [6]. For the same compound, the TGI in experiment [7] was 3.46 µM and 2.98 µM; in experiment [8] it was 6.31 µM and 6.78 µM; in experiment [9], 10.7 µM and > 10 µM; in [10], 32.6 µM and > 10 µM.
With `CCN(CC)c1ccc(C(=O)c2ccc(N(CC)CC)cc2)cc1`, the GI50 is 0.515 µM in [1]; 0.72 µM in experiment [2]; 0.15 µM in [3]; 0.278 µM in experiment [4]; 0.355 µM in [5]; 0.334 µM in experiment [6]. Further, the GI50 in [7] is 0.676 µM; in [8], 2.14 µM; in experiment [9], 0.359 µM; in [10], 0.407 µM. Also, the TGI was 3.44 µM in experiment [1]; above 38.9 µM in experiment [2]; 10.2 µM in experiment [3]; 1.67 µM in experiment [4]; 1.89 µM in experiment [5]; 17.4 µM in [6]. Besides, the TGI in [7] is 56.8 µM; in [8] it was above 100 µM; in [9], 3.78 µM; in [10] it was 2.5 µM.
As for `COC(=O)[C@@H](C)C[C@H](Cc1ccccc1)NC(=O)c1csc([C@@H](C[C@H](C(C)C)N(C)C(=O)[C@@H](NC(=O)[C@H]2CCCCN2C)C2CC2)OC(C)=O)n1`, the GI50 in experiment [1] was 0.000369 µM and < 0.00165 µM; in experiment [2], 0.000629 µM and 0.00165 µM; in [3], 0.000313 µM and 0.00165 µM; in experiment [4], 0.000247 µM and < 0.00165 µM; in [5] it was 0.0488 µM and 0.0603 µM; in [6] it was 0.000312 µM. The GI50 in [7] was 0.000604 µM and 0.00165 µM; in experiment [8], 0.00909 µM and 0.006 µM; in experiment [9] it was 0.000264 µM and 0.00165 µM; in experiment [10], 0.000235 µM and < 0.00165 µM. The TGI in [1] was 0.00336 µM and < 0.00165 µM; in experiment [2] it was above 16.5 µM; in experiment [3], above 16.5 µM; in experiment [4], 0.000988 µM and < 0.00165 µM; in experiment [5], above 16.5 µM; in experiment [7], above 16.5 µM. The TGI is above 16.5 µM in [8]; 0.00135 µM and 0.00208 µM in experiment [9]; 0.000839 µM and < 0.00165 µM in [10].
Take `C=C1C(=O)O[C@H]2[C@H]1CC/C(Cn1cc(-c3ccccc3C(F)(F)F)nn1)=C\CC[C@@]1(C)O[C@@H]21`: the GI50 in [1] is 1.98 µM; in [2], 2.23 µM; in experiment [3], 2.4 µM; in experiment [4], 1.38 µM; in experiment [5], 2.99 µM; in [6] it was 1.7 µM. Moreover, the GI50 is 17.3 µM in [7], 2.77 µM in experiment [8], 1.79 µM in [9] and 2.58 µM in [10]. Moreover, the TGI was determined as 3.81 µM in experiment [1]; 6.97 µM in experiment [2]; 13.1 µM in experiment [3]; 3.13 µM in [4]; 15.1 µM in experiment [5]; 3.56 µM in [6]. Also, the TGI stood at 31.2 µM in experiment [7], 9.4 µM in [8], 3.75 µM in [9] and 10.1 µM in experiment [10].
Consider `Cc1cnc(C(=O)NNc2nc3sc4c(c3c(=O)n2C)C(C)CCC4)cn1` (centres undefined), for which the GI50 was 0.296 µM in experiment [1]; 0.366 µM in [2]; 0.433 µM in experiment [3]; 0.328 µM in experiment [4]; 0.392 µM in experiment [5]; 0.544 µM in [6]. Also, the GI50 in [7] was 0.628 µM; in [8] it was 0.163 µM; in experiment [9], 0.788 µM; in experiment [10], 0.269 µM. Besides, the TGI in [1] was 1.33 µM; in experiment [2], 11.9 µM; in [3], above 100 µM; in experiment [4], 4.62 µM; in experiment [5] it was 10.8 µM; in [6], 3.29 µM. Moreover, the TGI in experiment [7] was 5.01 µM; in experiment [8], 2.09 µM; in experiment [9], 6.19 µM; in experiment [10], 0.765 µM.
Regarding `O=C1C(Cl)=C(NCc2ccco2)C(=O)c2ccccc21`, the GI50 was 9.11 µM in experiment [1]; 22.5 µM in [2]; 4.55 µM in experiment [3]; 7.15 µM in experiment [4]; 31.2 µM in experiment [5]; 2.03 µM in [6]. In addition, the GI50 was 40.3 µM in experiment [7], 6.91 µM in [8], 6.14 µM in experiment [9] and 7.63 µM in experiment [10]. Also, the TGI in experiment [1] is 26.4 µM; in experiment [2], above 100 µM; in experiment [3], above 100 µM; in [4] it was above 55.2 µM; in experiment [5], above 100 µM; in experiment [6], 4.37 µM. Besides, the TGI in experiment [7] was above 100 µM; in experiment [8], 19.2 µM; in [9], above 100 µM; in experiment [10], above 76.9 µM.
As for `CCOC(=O)c1c2c(n3ccccc13)C(=O)c1ncccc1C2=O`, the GI50 in experiment [1] was 1.65 µM; in experiment [2], 0.0581 µM; in experiment [3], 0.0745 µM; in experiment [4], 0.419 µM; in experiment [5], 0.0348 µM; in experiment [6], 0.0561 µM. For the same compound, the GI50 is 0.0683 µM in experiment [7], 0.687 µM in experiment [8], 1.63 µM in experiment [9] and 0.0784 µM in experiment [10]. Further, the TGI is 4.93 µM in [1]; 6 µM in experiment [2]; above 100 µM in experiment [3]; 3.72 µM in [4]; 3.09 µM in experiment [5]; 4.56 µM in experiment [6]. In addition, the TGI in experiment [7] was 22.9 µM; in experiment [8], 12.3 µM; in [9] it was 5.68 µM; in experiment [10], 1.09 µM.
